Measurements: ChEMBL document CHEMBL1201862, “PubChem BioAssay data set” (2004)
The source made the active and inactive calls.

Assays:
[1] = control 3'UTR Renilla luciferase suppression, dose response, counter-screen for Shn3 inhibitor project, cell-based, Clone20-Shn3RL, cherry-picked (AID 624133); format: functional
[2] = molecular target: T1, High affinity choline transporter 1 (Homo sapiens, UniProt Q9GZV3); test: CHT inhibitors, dose response, cell-based, 10-point CRC, membrane potential dye (AID 588401); format: functional;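 note: membrane potential dye fluorescence of choline-evoked depolarization via CHT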
T1 sequence (Q9GZV3 whole entry): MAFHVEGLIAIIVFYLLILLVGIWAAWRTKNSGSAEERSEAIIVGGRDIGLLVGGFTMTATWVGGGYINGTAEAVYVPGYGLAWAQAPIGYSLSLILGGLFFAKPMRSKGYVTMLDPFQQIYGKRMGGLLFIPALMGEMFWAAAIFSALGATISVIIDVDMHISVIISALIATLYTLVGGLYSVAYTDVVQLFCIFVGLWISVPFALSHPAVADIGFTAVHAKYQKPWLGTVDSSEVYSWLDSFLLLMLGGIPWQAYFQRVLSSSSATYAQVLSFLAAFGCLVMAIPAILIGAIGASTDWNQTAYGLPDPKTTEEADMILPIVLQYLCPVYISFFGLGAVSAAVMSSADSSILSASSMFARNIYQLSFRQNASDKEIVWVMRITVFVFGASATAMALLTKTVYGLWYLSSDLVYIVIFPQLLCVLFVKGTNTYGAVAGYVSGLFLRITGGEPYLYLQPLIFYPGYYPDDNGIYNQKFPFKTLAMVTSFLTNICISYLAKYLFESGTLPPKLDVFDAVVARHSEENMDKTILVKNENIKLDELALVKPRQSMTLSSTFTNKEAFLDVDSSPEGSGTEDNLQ

[3] = molecular target: T1, High affinity choline transporter 1; test: CHT inhibitors, dose response, cell-based, 5-point CRC, membrane potential dye (AID 504840); format: functional
CHO = test: cytotoxicity in TLR9-MyD88 CHO cells, dose response, cytotoxicity control for TLR9-MyD88 binding inhibitor project, cell-based, luminescence (AID 588339); format: functional, hamster; settings: Cricetulus griseus;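 note: CHO cells stably coexpressing TLR9 and MyD88 fusions from primary screen; compound exposure lasted 48 hours before viability readout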
[4] = Shn3 3'UTR reporter inhibitors, dose response, cell-based, Clone20 osteoblasts, firefly luciferase, cherry-picked (AID 624132); format: functional;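 note: firefly luciferase luminescence from reporter carrying the Shn3 3'UTR in osteoblasts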
[5] = HepG2 cell cytotoxicity, dose response, cytotoxicity control for Shn3 inhibitor project, CellTiter-Glo, cherry-picked (AID 624134); format: functional, cell-based
Beta Lactamase = Beta Lactamase (Pseudomonas aeruginosa, UniProt Q932Y6); test: beta-lactamase reporter inhibitor potency, dose response, artefact control for TLR9-MyD88 binding inhibitor project, BLA reporter cells, FRET fluorescence (AID 588341); format: cell-based;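 note: cell based assay in CHO-K1 cells stably expressing beta-lactamase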
Leucine aminopeptidase = molecular target: T2, Leucine aminopeptidase (Plasmodium falciparum 3D7, UniProt Q8IL11); test: P. falciparum M17LAP inhibitors, primary screen, biochemical, fluorogenic H-Leu-NHMec substrate, 1536-well (AID 1619); format: functional
T2 sequence (Q8IL11 whole entry): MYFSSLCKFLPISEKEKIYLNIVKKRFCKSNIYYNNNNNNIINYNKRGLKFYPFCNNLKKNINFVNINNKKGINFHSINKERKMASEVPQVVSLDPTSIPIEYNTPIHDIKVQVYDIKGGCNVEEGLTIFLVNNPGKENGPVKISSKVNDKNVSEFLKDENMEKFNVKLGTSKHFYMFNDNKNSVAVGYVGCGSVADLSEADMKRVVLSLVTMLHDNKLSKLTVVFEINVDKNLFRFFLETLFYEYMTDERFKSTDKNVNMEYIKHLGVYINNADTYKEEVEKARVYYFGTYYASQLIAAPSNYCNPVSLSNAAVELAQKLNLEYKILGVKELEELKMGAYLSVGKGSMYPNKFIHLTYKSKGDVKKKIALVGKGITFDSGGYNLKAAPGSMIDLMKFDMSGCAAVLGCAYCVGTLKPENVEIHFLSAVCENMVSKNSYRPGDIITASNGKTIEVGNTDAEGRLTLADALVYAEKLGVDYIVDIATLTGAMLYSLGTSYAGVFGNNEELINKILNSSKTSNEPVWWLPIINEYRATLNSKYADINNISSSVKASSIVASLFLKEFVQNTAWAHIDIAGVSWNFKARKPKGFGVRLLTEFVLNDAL

[6] = miR-122 activators in hepatoma reporter cells, dose response, cell-based, Huh7 psiCHECK-miR122, Renilla luciferase, cherry-picked (AID 651956); format: functional;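 note: huh7 hepatoma cells stably carrying a psiCHECK-2 miR-122 sensor plasmid; renilla luciferase signal reporting endogenous miR-122 activity after 48 h compound exposure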
Large T antigen = Large T antigen (Simian virus 40, UniProt P03070); format: functional, Betapolyomavirus macacae;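 note: Confirmatory-stage PubChem screen for compounds that inhibit SV40 T antigen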
[7] = HEK293T cytotoxicity, dose response, cytotoxicity control for miR-122 modulator project, cell-based, inhibitor set, cherry-pick, set 2 (AID 720697); format: functional
Steroidogenic factor 1 = Steroidogenic factor 1 (Homo sapiens, UniProt Q13285); test: Counterscreen for inverse agonists of the liver receptor homolog-1 (LRH-1; NR5A2): Luminescence-based cell-based high throughput dose response assay to identify inverse agonists of the Steroidogenic Factor 1 Nuclear Receptor (SF1; NR5A1).; format: functional
[8] = StAR promoter reporter inhibition counter-screen, dose response, counter-screen for LRH-1 inverse agonist project, cell-based, luminescence, luciferase reporter (AID 651969); format: functional
[9] = molecular target: Nuclear receptor subfamily 5 group A member 2 (Homo sapiens, UniProt O00482); format: functional, cell-based;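 note: HEK293T cells transfected with LRH-1 and a StAR promoter luciferase reporter; potency for inhibitors that lower LRH-1 driven reporter light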
[10] = molecular target: T1, High affinity choline transporter 1; test: inhibitors of CHT choline uptake, dose response, cell-based, 3H-choline uptake, CHT LV-AA trafficking mutant, CRC (AID 602208); format: functional

Chain of Large T antigen (P03070 whole entry): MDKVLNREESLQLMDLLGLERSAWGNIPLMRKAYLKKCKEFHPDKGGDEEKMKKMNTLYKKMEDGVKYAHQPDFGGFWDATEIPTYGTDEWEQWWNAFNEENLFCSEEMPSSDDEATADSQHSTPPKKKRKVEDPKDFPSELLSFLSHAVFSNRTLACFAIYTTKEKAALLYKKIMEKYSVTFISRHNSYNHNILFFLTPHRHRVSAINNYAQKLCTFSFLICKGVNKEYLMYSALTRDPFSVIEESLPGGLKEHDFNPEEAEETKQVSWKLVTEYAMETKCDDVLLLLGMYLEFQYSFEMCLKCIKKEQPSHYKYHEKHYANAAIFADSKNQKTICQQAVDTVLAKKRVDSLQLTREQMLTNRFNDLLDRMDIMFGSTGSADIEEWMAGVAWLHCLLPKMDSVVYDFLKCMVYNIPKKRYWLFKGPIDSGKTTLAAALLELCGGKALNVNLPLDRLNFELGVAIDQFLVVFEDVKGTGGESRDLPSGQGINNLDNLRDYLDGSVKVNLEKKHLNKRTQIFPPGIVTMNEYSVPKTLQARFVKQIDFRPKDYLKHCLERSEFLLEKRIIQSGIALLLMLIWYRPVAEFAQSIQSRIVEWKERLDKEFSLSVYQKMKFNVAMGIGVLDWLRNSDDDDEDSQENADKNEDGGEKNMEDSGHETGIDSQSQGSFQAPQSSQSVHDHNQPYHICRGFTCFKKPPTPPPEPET
Chain of Nuclear receptor subfamily 5 group A member 2 (O00482 whole entry): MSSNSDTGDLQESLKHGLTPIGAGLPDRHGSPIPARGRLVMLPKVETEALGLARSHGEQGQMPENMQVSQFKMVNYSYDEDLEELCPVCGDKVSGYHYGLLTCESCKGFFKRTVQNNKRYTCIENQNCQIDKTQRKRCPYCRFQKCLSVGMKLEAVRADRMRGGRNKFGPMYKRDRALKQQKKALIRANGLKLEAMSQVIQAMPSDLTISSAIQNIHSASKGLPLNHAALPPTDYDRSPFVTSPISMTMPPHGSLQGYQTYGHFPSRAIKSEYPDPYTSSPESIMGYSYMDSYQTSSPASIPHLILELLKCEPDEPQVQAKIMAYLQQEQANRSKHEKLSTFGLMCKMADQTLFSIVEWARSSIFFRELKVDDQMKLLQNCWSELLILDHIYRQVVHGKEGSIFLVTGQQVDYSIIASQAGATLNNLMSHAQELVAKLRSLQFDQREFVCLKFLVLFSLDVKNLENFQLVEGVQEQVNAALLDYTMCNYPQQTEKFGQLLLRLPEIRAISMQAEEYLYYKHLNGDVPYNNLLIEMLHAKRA
Chain of Steroidogenic factor 1 (Q13285 whole entry): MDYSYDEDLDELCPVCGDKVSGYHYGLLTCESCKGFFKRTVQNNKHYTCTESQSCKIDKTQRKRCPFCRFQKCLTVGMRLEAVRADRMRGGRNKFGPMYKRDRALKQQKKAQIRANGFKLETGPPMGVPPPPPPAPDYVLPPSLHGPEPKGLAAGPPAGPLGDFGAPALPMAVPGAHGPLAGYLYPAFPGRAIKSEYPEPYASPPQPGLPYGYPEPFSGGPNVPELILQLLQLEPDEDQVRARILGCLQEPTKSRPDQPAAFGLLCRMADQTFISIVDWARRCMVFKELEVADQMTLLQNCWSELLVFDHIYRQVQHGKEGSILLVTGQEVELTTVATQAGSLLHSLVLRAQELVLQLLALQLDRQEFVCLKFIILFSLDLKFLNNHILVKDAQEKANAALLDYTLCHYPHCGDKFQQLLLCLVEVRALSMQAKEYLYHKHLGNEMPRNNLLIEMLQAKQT
Chain of Beta Lactamase (Q932Y6 whole entry): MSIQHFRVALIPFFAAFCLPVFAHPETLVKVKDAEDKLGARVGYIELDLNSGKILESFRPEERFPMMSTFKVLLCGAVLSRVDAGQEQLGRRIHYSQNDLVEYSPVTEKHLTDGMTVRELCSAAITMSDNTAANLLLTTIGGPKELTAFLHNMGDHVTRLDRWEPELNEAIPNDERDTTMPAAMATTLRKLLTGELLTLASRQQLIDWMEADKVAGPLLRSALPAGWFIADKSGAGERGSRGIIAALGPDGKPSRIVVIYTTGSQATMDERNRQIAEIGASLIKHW

O=c1oc2ccccc2c(Cl)c1CN1CCCCC1
active: AC50 [1] 7.15 µM | IC50 [2] 6.69 µM | IC50 [3] 10 µM | IC50 (CHO) 1.22 µM | AC50 [4] 4.99 µM | IC50 (Beta Lactamase) 6.02 µM
inactive: AC50 [5] > 70 µM

Cc1cccc(C)c1NC(=O)CSCC(=O)c1ccc(O)c(O)c1
active: IC50 (Leucine aminopeptidase) 20.9 µM | AC50 [6] 15 µM | IC50 (Large T antigen) 12.8 µM | AC50 [7] 2.43 µM

CCCc1cc(=O)oc2c(C)c(OCC(=O)NCCCn3ccnc3)ccc12
inactive: IC50 (Steroidogenic factor 1) 10.8 µM | IC50 [8] 35.9 µM | IC50 [9] 35.9 µM

O=C(Nc1ccc(S(=O)(=O)Nc2cnc3ccccc3n2)cc1)c1ccc(Cl)cc1Cl
active: IC50 [2] 3.25 µM | IC50 [3] 9.55 µM | IC50 [10] 2.82 µM
